The source made the active and inactive calls. The calls are words filed in the database; no cut-off is given here.

The target in experiment [1] is T1, Sphingosine kinase 2 (Mus musculus) (UniProt Q9JIA7).
T1 sequence (whole entry): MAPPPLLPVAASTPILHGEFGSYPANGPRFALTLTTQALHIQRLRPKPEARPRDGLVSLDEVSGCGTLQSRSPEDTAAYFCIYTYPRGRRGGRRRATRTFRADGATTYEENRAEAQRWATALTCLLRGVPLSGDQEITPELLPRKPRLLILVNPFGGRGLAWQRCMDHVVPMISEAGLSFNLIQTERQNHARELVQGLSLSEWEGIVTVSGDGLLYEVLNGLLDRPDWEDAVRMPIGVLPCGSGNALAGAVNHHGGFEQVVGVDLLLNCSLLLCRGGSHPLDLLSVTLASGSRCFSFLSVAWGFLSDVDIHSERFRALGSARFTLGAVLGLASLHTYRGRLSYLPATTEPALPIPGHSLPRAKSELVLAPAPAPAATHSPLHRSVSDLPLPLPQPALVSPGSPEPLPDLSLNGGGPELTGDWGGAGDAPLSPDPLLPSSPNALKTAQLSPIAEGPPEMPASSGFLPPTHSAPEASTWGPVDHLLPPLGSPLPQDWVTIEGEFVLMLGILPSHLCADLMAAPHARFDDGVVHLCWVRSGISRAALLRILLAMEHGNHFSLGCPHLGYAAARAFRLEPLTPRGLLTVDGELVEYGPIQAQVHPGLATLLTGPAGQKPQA
The experiment is described as follows: Inhibition of mouse SPHK2 in mouse A20/2J cells using [3-3H]sphingosine as substrate assessed as [3H]S1P formation at 8 uM incubated for 5 mins prior to substrate addition measured after 5 mins. It is filed as cell-based.

Experiment [2] deals with Sphingosine kinase 1 (Mus musculus) (UniProt Q8CI15). The experiment is described as follows: Activity at mouse SPHK1 transfected in mouse A20/2J cell lysates assessed as compound phosphorylation at 10 uM after 30 mins by autoradiography in presence of [gamma-32P]ATP. The experiment is classed as cell-free.
Experiment [3] is described as follows: Induction of apoptosis in mouse SPHK2-transfected mouse A20/2J cells assessed as viable cells at 8 uM after 6 hrs by FITC-annexin V/propidium iodide staining-based flow cytometric analysis (reference value: 96.1%). It is filed as functional. To be noted: read-out: Activity.
Experiment [4] relates to A20/2J. Nature of the experiment: Induction of apoptosis in mouse SPHK2-transfected mouse A20/2J cells assessed as increase in LDH release at 10 uM after 6 hrs. The experiment is classed as functional, cell-based. For orientation: LDH in the medium is a marker of cell lysis.
The subject of experiment [5] is A20/2J. Nature of the experiment: Induction of apoptosis in mouse SPHK2-transfected mouse A20/2J cells at 8 uM after 6 hrs by flow cytometric analysis in presence of pan-caspase inhibitor z-VAD-fmk. The experiment is classed as functional, cell-based.
The nature of experiment [6]: Induction of apoptosis in mouse A20/2J cells assessed as early apoptotic cells at 8 uM after 6 hrs by FITC-annexin V/propidium iodide staining-based flow cytometric analysis (reference value: 2.58%). The experiment is classed as functional. In general terms: In flow cytometry, cells or beads pass a laser one at a time.
A short description of experiment [7]: Induction of apoptosis in mouse N-terminal FLAG-tagged SPHK1-transfected mouse A20/2J cells at 10 uM after 9 hrs by LDH release assay. The experiment is classed as functional.
The nature of experiment [8]: Induction of apoptosis in mouse SPHK2-transfected mouse A20/2J cells assessed as early apoptotic cells at 8 uM after 6 hrs by FITC-annexin V/propidium iodide staining-based flow cytometric analysis (reference value: 2.48%). The experiment is classed as functional.
The nature of experiment [9]: Induction of apoptosis in mouse SPHK1-transfected mouse A20/2J cells assessed as activation of caspase 3 at 10 uM after 3 hrs by flow cytometric analysis. The experiment is classed as functional.
Experiment [10] is described as follows: Induction of apoptosis in mouse A20/2J cells assessed as late apoptotic cells at 8 uM after 6 hrs by FITC-annexin V/propidium iodide staining-based flow cytometric analysis (reference value: 1.39%). It is filed as functional.
In experiment [11] the test system is A20/2J. The experiment is described as follows: Induction of apoptosis in mouse SPHK1-transfected mouse A20/2J cells assessed as increase in LDH release at 50 uM. The experiment is classed as functional, cell-based.
Experiment [12] is described as follows: Induction of apoptosis in mouse A20/2J cells assessed as activation of caspase 3 at 10 uM after 3 hrs by flow cytometric analysis. The experiment is classed as functional.
Experiment [13] deals with Sphingosine kinase 1 (Mus musculus) (UniProt Q8CI15). Nature of the experiment: Inhibition of mouse SPHK1 in mouse A20/2J cells using [3-3H]sphingosine as substrate assessed as [3H]S1P formation at 2 to 4 uM incubated for 5 mins prior to substrate addition measured after 5 mins. It is filed as cell-based.
Experiment [14] in a line: Induction of apoptosis in mouse SPHK2 R293E/R294E mutant-transfected mouse A20/2J cells at 10 uM after 9 hrs by LDH release assay. It is filed as functional.
The target in experiment [15] is T1, Sphingosine kinase 2 (Mus musculus). Nature of the experiment: Activity at mouse SPHK2 transfected in mouse A20/2J cell lysates assessed as compound phosphorylation at 10 uM after 30 mins by autoradiography in presence of [gamma-32P]ATP. It is filed as cell-free.
The test system of experiment [16] is A20/2J. Nature of the experiment: Induction of apoptosis in mouse SPHK2-transfected mouse A20/2J cells assessed as increase in LDH release at 50 uM. The experiment is classed as functional, cell-based.
Experiment [17] is described as follows: Induction of apoptosis in mouse N-terminal FLAG-tagged SPHK2-transfected mouse A20/2J cells at 10 uM after 9 hrs by LDH release assay. It is filed as functional.
Experiment [18] concerns A20/2J. Nature of the experiment: Induction of apoptosis in mouse SPHK2-transfected mouse A20/2J cells assessed as increase in LDH release after 8 hrs. The experiment is classed as functional, cell-based.
In experiment [19] the test system is A20/2J. Nature of the experiment: Induction of apoptosis in mouse SPHK1-transfected mouse A20/2J cells assessed as increase in LDH release at 10 uM up to 10 hrs. It is filed as functional, cell-based.
In experiment [20] the test system is A20/2J. Nature of the experiment: Induction of apoptosis in mouse SPHK2-transfected mouse A20/2J cells assessed as chromatin condensation at 8 uM after 18 hrs by transmission electron microscopy. It is filed as functional, cell-based.
Experiment [21] can be described thus: Induction of apoptosis in mouse SPHK2 L219A mutant-transfected mouse A20/2J cells at 10 uM after 9 hrs by LDH release assay. The experiment is classed as functional.
Experiment [22] can be described thus: Induction of apoptosis in mouse SPHK2-transfected mouse A20/2J cells assessed as activation of caspase 3 at 10 uM after 3 hrs by flow cytometric analysis. It is filed as functional.
A short description of experiment [23]: Induction of apoptosis in mouse A20/2J cells assessed as viable cells at 8 uM after 6 hrs by FITC-annexin V/propidium iodide staining-based flow cytometric analysis (reference value: 95.9%). To be noted: read-out: Activity. The experiment is classed as functional.
The test system of experiment [24] is A20/2J. The experiment is described as follows: Induction of apoptosis in mouse SPHK2-transfected mouse A20/2J cells assessed as increase in LDH release at 10 uM. The experiment is classed as functional, cell-based. To be noted: TDE = time-dependent effect.
The target in experiment [25] is T1, Sphingosine kinase 2 (Mus musculus). The experiment is described as follows: Inhibition of mouse SPHK2 in mouse A20/2J cells using [3-3H]sphingosine as substrate assessed as [3H]S1P formation at 2 to 4 uM incubated for 5 mins prior to substrate addition measured after 5 mins. It is filed as cell-based.
Experiment [26] addresses Sphingosine kinase 1 (Mus musculus) (UniProt Q8CI15). The experiment is described as follows: Inhibition of mouse SPHK1 in mouse A20/2J cells using [3-3H]sphingosine as substrate assessed as [3H]S1P formation at 8 uM incubated for 5 mins prior to substrate addition measured after 5 mins. It is filed as cell-based.
Experiment [27] in a line: Induction of apoptosis in mouse SPHK2-transfected mouse A20/2J cells assessed as late apoptotic cells at 8 uM after 6 hrs by FITC-annexin V/propidium iodide staining-based flow cytometric analysis (reference value: 1.12%). It is filed as functional.
Experiment [28] in a line: Induction of apoptosis in mouse SPHK2 G213D mutant-transfected mouse A20/2J cells at 10 uM after 9 hrs by LDH release assay. The experiment is classed as functional.
Experiment [29] has as its system A20/2J. The experiment is described as follows: Induction of apoptosis in mouse A20/2J cells assessed as increase in LDH release at 10 uM up to 10 hrs. The experiment is classed as functional, cell-based.

Sequence of Sphingosine kinase 1 (Mus musculus) (Q8CI15 whole entry): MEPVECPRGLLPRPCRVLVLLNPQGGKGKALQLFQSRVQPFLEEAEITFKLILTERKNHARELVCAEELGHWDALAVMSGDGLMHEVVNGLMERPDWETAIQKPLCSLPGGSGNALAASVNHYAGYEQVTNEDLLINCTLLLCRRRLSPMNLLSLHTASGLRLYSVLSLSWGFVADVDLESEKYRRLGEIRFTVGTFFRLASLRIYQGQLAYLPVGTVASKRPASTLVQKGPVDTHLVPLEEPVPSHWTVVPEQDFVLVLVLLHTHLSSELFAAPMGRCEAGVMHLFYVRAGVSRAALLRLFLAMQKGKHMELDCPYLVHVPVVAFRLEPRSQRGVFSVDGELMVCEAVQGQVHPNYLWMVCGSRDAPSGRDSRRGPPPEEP

With `CCCCCCCCc1ccc(C[C@@H](O)[C@@H](N)CO)cc1`, the inhibition in [1] worked out at 46%; in experiment [26], 8%. Further, the result (in experiment [2]; in the experiment on A20/2J [4]; with A20/2J [5]; in the experiment with A20/2J [11]; in experiment [15]; with A20/2J [16]) was Active. Moreover, the outcome in the experiment with A20/2J [19], in the experiment on A20/2J [20] and with A20/2J [29] was Active. For the same molecule, the viability at 8 µM in experiment [3] worked out at 70.1%; in [23], 93.2%. Also, the Activity stood at 5.06% in experiment [6]; 17.8% in experiment [7]; 7.86% in [8]; 6.4% in experiment [9]; 1.62% in experiment [10]; 9.6% in [12]. The Activity in [14] was 13.2%; in experiment [17] it was 18.4%; in the experiment on A20/2J [18], “Dose-dependent effect”; in experiment [21] it was 20.3%; in experiment [22] it was 31.8%; with A20/2J [24], “tde”. The Activity worked out at 19% in [27] and 9.8% in experiment [28]. The inhibition result in experiment [13] and in [25] was “Active” each time.

For the molecule `CCCCCCCCc1ccc(C[C@H](O)[C@@H](N)CO)cc1`, the outcome in experiment [2] and in experiment [15] was Active. In addition, the inhibition result in experiment [13] and in experiment [25] was “inactive” each time.

The term inhibition denotes the drop in the measured response relative to a control, in per cent.

The record behind these values is ChEMBL document CHEMBL2401642, “Sphingosine kinase 2 inhibitor SG-12 induces apoptosis via phosphorylation by sphingosine kinase 2” (2013).
